From patent US12358902B2, “5-(2,5-bis(4-chloro-2-isopropylphenyl)thiophen-3-yl)-1H-tetrazole for the topical treatment of bacterial infections” (DENOVAMED INC., priority 2017, dated 2025)
≈ marks a conversion by molar mass, not a printed value.

What was measured:
[1] = system: USA100 MRSA strain; experiment: bactericidal activity; assay type: cell-based
[2] = system: panel of 125 important Gram positive strains and MDR clinical isolates of MRSA, VRE, and S. epidermidis; experiment: MIC versus panel of 125 strains; assay type: cell-based; conditions: panel of 125 strains incl. strains resistant to vancomycin, penicillin, erythromycin and ciprofloxacin
Method: Using a broth microdilution assay according to Clinical Laboratory Standards Institute (CSLI) guidelines, we tested 5-(2,5-bis(4-chloro-2-isopropylphenyl)thiophen-3-yl)-1H-tetrazole (“Test Article” in below table) to establish MICs against a broad range of MDR bacteria and noted substantive activity versus methicillin-resistant Staphylococcus aureus (MRSA), vancomycin-resistant Enterococcus (VRE) and Streptococcus spp. Antimicrobial susceptibility testing was performed by a microdilution broth assay according to CLSI guidelines. The inoculum was prepared from stationary-phase cultures diluted in water. Microtiter plate wells received aliquots of 100 μL of the compound diluted in Mueller-Hinton II cation adjusted media. The final concentration of compound typically ranged from 250 to 0.125 μg/ml in serial two-fold dilutions. In addition to the test compound, growth and sterility controls were included, along with DMSO vehicle control rows. The microtiter plates were inoculated with 5×10^5 bacteria and incubated overnight at 35° C. in a humidified atmosphere. […]

[3] = system: Clostridium spp.; experiment: activity against Clostridium spp.; assay type: cell-based
[4] = system: mupirocin resistant strains of E. faecalis; experiment: activity against mupirocin resistant strains; assay type: cell-based
[5] = system: MRSA; experiment: cellulitis model, intra-dermal MRSA; assay type: in vivo, SKH1 mice; conditions: topical formulation for 7 days
Method: SKH1 mice were injected intra-dermally with MRSA (N=15). 5 mice received neutral control topical formulation for 7 days. 5 mice received a topical formulation containing mupirocin for 7 days. 5 mice received a topical formulation containing 5-(2,5-bis(4-chloro-2-isopropylphenyl)thiophen-3-yl)-1H-tetrazole for 7 days. Lesion area was measured each day. After 7 days, terminal colony forming units (CFUs) were measured to determine microbiological efficacy.

[6] = system: mupirocin resistant S. aureus strains (MMX 1013, MMX 7779, MMX 7782, MMX 8845, MMX 9202); experiment: MIC versus mupirocin resistant S. aureus panel; assay type: cell-based; conditions: Staphylococcus aureus; mupirocin resistant S. aureus MMX 1013, MMX 7779, MMX 7782, MMX 8845, MMX 9202
Method: (§1) Using a broth microdilution assay according to Clinical Laboratory Standards Institute (CSLI) guidelines, we tested 5-(2,5-bis(4-chloro-2-isopropylphenyl)thiophen-3-yl)-1H-tetrazole (“Test Article” in below table) to establish MICs against a broad range of MDR bacteria and noted substantive activity versus methicillin-resistant Staphylococcus aureus (MRSA), vancomycin-resistant Enterococcus (VRE) and Streptococcus spp. Antimicrobial susceptibility testing was performed by a microdilution broth assay according to CLSI guidelines. The inoculum was prepared from stationary-phase cultures diluted in water. Microtiter plate wells received aliquots of 100 μL of the compound diluted in Mueller-Hinton II cation adjusted media. The final concentration of compound typically ranged from 250 to 0.125 μg/ml in serial two-fold dilutions. In addition to the test compound, growth and sterility controls were included, along with DMSO vehicle control rows. The microtiter plates were inoculated with 5×10^5 bacteria and incubated overnight at 35° C. in a humidified atmosphere.

[7] = system: mupirocin resistant strains of E. faecalis VRE; experiment: activity against mupirocin resistant strains; assay type: cell-based
[8] = system: S. aureus MRSA USA100 epidemic strain; experiment: broth microdilution MIC (CLSI); assay type: cell-based; conditions: Staphylococcus aureus; S. aureus MRSA USA100 epidemic strain; read-out: Antibacterial activity (MIC)
Method: as §1

[9] = system: S. aureus MRSA USA200 epidemic strain; experiment: broth microdilution MIC (CLSI); assay type: cell-based; conditions: Staphylococcus aureus; S. aureus MRSA USA200 epidemic strain; read-out: Antibacterial activity (MIC)
Method: as §1

[10] = system: S. aureus MRSA clinical isolate ciprofloxacin resistant; experiment: broth microdilution MIC (CLSI); assay type: cell-based; conditions: Staphylococcus aureus; S. aureus MRSA clinical isolate ciprofloxacin resistant; read-out: Antibacterial activity (MIC)
Method: as §1

[11] = system: S. aureus MRSA ATCC43300; experiment: broth microdilution MIC (CLSI); assay type: cell-based; conditions: Staphylococcus aureus; S. aureus MRSA ATCC43300; read-out: Antibacterial activity (MIC)
Method: as §1

[12] = system: S. aureus MRSA clinical isolate multi resistant; experiment: broth microdilution MIC (CLSI); assay type: cell-based; conditions: Staphylococcus aureus; S. aureus MRSA clinical isolate multi resistant; read-out: Antibacterial activity (MIC)
Method: as §1

[13] = system: E. faecium ATCC51299 vancomycin resistant; experiment: broth microdilution MIC (CLSI); assay type: cell-based; conditions: Enterococcus faecium, read-out: Antibacterial activity (MIC)
Method: as §1

[14] = system: S. aureus MRSA clinical isolate from Manchester; experiment: broth microdilution MIC (CLSI); assay type: cell-based; conditions: Staphylococcus aureus; S. aureus MRSA clinical isolate from Manchester; read-out: Antibacterial activity (MIC)
Method: as §1

[15] = system: E. faecalis ATCC51599 vancomycin resistant; experiment: broth microdilution MIC (CLSI); assay type: cell-based; conditions: Enterococcus faecalis, read-out: Antibacterial activity (MIC)
Method: as §1

[16] = system: S. aureus MRSA USA300 epidemic strain; experiment: broth microdilution MIC (CLSI); assay type: cell-based; conditions: Staphylococcus aureus; S. aureus MRSA USA300 epidemic strain; read-out: Antibacterial activity (MIC)
Method: as §1

[17] = system: S. epidermidis NRS7 vancomycin intermediate; experiment: broth microdilution MIC (CLSI); assay type: cell-based; conditions: Staphylococcus epidermidis, read-out: Antibacterial activity (MIC)
Method: as §1

[18] = system: S. aureus MRSA MISA MU50 NRS1; experiment: broth microdilution MIC (CLSI); assay type: cell-based; conditions: Staphylococcus aureus; S. aureus MRSA MISA MU50 NRS1; read-out: Antibacterial activity (MIC)
Method: as §1

[19] = system: S. aureus MRSA clinical isolate penicillin and erythromycin resistant; experiment: broth microdilution MIC (CLSI); assay type: cell-based; conditions: Staphylococcus aureus; S. aureus MRSA clinical isolate penicillin and erythromycin resistant; read-out: Antibacterial activity (MIC)
Method: as §1

[20] = system: S. aureus MRSA MISA MU3 NRS2; experiment: broth microdilution MIC (CLSI); assay type: cell-based; conditions: Staphylococcus aureus; S. aureus MRSA MISA MU3 NRS2; read-out: Antibacterial activity (MIC)
Method: as §1

[21] = target: LpxA (Escherichia coli, UniProt P0A722); experiment: in vitro enzyme assay, selectivity; assay type: biochemical; conditions: ACP utilizing bacterial enzyme
Chain of LpxA (P0A722 whole entry): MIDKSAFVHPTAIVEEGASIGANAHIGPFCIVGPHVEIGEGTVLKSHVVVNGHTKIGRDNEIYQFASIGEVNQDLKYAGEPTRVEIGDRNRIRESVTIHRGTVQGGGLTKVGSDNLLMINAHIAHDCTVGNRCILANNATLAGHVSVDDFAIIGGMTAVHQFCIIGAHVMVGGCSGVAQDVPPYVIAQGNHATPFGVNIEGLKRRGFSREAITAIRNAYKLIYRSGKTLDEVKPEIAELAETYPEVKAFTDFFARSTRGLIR

CC(C)c1cc(Cl)ccc1-c1cc(-c2nnn[nH]2)c(-c2ccc(Cl)cc2C(C)C)s1 [Test Article, 5-(2,5-bis(4-chloro-2-isopropylphenyl)thiophen-3-yl)-1H-tetrazole]
bactericidal activity [1]: rapidly bactericidal
MIC [2]: 0.5 to 1 µg/mL (≈ 1.09 to 2.19 µM)
activity [3]: retained activity
activity [4]: retained activity
terminal CFU count ([5]; FIG. 2A): significantly reduce
lesion area ([5]; FIG. 2B): significantly reduce
MIC [6]: 2 µg/mL (≈ 4.37 µM)
activity [7]: retained activity
MIC [8]: 1 µg/mL (≈ 2.19 µM)
MIC [9]: 0.5 µg/mL (≈ 1.09 µM)
MIC [10]: 1 µg/mL (≈ 2.19 µM)
MIC [11]: 0.5 µg/mL (≈ 1.09 µM)
MIC [12]: 0.5 µg/mL (≈ 1.09 µM)
MIC [13]: 1 µg/mL (≈ 2.19 µM)
MIC [14]: 0.5 µg/mL (≈ 1.09 µM)
MIC [15]: 0.5 µg/mL (≈ 1.09 µM)
MIC [16]: 0.5 µg/mL (≈ 1.09 µM)
MIC [17]: 1 µg/mL (≈ 2.19 µM)
MIC [18]: 0.5 µg/mL (≈ 1.09 µM)
MIC [19]: 0.5 µg/mL (≈ 1.09 µM)
MIC [20]: 1 µg/mL (≈ 2.19 µM)
inhibition of LpxA [21]: did not inhibit
